Data reported in patent publication US11739098B2 (BRISTOL-MYERS SQUIBB COMPANY, priority 2017, dated 2023).

How the values were obtained:
Format in all cases: cell-based
[1] = target: T1, human TLR8 (Homo sapiens, UniProt Q9NR97); assay: TLR8 inhibition reporter assay (HEK-Blue cells, SEAP reporter, R848 stimulation); settings: HEK-Blue cells overexpressing human TLR8, SEAP reporter, R848 15.9 μM
T1 construct: host or cells: HEK-Blue cells (HEK293-derived reporter line)
T1 sequence (Q9NR97 27-1041): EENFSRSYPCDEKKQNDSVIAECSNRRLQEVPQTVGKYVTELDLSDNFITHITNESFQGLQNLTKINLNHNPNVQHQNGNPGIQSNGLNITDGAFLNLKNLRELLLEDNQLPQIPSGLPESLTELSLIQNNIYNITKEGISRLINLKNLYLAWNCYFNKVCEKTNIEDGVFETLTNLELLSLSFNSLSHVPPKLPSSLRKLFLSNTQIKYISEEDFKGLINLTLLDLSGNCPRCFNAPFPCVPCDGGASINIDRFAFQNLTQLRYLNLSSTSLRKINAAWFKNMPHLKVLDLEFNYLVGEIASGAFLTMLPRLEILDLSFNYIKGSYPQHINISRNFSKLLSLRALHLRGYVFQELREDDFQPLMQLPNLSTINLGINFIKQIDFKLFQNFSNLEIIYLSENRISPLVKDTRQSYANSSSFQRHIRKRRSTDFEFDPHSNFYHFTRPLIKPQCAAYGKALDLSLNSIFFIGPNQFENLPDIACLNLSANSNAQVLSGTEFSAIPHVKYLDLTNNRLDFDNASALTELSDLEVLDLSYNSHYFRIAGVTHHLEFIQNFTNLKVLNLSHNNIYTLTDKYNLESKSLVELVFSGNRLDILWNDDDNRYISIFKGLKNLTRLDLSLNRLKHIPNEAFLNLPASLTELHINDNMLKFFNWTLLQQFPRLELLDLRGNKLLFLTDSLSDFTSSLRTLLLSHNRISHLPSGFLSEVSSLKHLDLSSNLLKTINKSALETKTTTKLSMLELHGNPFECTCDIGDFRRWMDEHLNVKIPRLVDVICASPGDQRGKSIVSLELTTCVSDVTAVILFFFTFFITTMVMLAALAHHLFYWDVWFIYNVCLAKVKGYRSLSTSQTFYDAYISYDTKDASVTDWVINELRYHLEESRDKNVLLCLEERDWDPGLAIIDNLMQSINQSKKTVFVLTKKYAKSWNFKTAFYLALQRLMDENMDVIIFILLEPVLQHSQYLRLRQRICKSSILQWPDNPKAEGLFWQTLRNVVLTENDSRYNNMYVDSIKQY
Method in brief: (§1)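 Read-out is SEAP activity in HEK-Blue detection medium after 22 h at 37 °C, converted to percent inhibition against agonist-plus-DMSO and reference-inhibitor controls. Cells saw compound (0.05 nM–50 μM, 30 min, room temperature) before gardiquimod 7.5 μM, R848 15.9 μM or ODN2006 5 nM for TLR7, TLR8 and TLR9, respectively.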

[2] = target: T2, human TLR9 (Homo sapiens, UniProt Q9NR96); assay: TLR9 inhibition reporter assay (HEK-Blue cells, SEAP reporter, ODN2006 stimulation); settings: HEK-Blue cells overexpressing human TLR9, SEAP reporter, ODN2006 5 nM
T2 construct: host or cells: HEK-Blue cells (HEK293-derived reporter line)
T2 sequence (Q9NR96 26-1032): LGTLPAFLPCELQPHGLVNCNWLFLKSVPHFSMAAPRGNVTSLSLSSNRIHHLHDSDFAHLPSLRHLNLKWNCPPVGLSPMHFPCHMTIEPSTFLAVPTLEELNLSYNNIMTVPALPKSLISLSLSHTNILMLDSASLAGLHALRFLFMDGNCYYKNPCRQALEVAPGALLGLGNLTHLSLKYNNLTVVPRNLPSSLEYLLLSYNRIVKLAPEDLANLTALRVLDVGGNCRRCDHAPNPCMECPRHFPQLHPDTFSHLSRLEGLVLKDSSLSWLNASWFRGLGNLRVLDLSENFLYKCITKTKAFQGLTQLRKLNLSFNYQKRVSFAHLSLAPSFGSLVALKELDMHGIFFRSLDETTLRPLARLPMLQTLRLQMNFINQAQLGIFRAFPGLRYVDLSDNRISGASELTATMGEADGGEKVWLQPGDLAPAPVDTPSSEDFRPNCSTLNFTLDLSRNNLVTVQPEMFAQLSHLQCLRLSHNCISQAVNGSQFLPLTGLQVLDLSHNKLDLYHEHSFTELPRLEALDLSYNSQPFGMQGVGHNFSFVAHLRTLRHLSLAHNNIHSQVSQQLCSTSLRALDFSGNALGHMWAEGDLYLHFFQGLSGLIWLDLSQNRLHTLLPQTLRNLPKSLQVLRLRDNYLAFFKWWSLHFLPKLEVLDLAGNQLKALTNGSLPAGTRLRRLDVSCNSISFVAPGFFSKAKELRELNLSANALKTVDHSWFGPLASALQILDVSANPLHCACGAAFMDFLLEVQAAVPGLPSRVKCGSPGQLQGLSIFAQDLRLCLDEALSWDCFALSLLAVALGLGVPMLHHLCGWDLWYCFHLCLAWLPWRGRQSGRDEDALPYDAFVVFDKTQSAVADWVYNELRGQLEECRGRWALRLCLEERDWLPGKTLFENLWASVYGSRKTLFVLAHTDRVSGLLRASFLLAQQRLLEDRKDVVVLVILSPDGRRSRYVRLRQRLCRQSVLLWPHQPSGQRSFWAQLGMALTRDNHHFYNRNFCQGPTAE
Method in brief: as §1

[3] = target: T3, human TLR7 (Homo sapiens, UniProt Q9NYK1); assay: TLR7 inhibition reporter assay (HEK-Blue cells, SEAP reporter, gardiquimod stimulation); settings: HEK-Blue cells overexpressing human TLR7, SEAP reporter, gardiquimod 7.5 μM
T3 construct: host or cells: HEK-Blue cells (HEK293-derived reporter line)
T3 sequence (Q9NYK1 27-1049): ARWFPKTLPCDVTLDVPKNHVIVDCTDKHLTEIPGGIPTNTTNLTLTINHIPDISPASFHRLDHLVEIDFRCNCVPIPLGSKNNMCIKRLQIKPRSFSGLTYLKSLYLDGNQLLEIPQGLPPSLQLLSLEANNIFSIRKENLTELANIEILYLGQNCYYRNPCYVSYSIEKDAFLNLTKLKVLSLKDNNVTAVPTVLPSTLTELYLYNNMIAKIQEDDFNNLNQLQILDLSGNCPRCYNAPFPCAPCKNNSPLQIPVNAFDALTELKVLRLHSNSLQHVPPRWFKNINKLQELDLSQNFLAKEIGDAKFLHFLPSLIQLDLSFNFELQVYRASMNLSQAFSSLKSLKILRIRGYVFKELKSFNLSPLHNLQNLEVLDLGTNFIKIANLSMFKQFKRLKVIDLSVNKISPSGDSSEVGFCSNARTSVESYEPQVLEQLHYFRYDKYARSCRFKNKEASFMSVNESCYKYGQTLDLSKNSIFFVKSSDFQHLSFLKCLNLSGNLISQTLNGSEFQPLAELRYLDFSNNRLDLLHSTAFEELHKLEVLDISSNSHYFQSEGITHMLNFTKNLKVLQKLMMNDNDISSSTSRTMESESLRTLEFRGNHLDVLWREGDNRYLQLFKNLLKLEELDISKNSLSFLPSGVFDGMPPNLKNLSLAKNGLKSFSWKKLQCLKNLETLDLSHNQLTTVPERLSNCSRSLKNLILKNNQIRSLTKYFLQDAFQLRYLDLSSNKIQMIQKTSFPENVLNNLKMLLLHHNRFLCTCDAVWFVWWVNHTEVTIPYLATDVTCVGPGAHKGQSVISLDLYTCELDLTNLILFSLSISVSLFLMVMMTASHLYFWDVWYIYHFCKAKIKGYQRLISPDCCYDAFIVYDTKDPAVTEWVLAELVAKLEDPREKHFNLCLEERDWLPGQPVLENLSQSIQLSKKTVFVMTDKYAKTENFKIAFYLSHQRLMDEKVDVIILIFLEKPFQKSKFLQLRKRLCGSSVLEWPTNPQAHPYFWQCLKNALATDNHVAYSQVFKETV
Method in brief: as §1

| IC50 [1] [nM] | IC50 [2] [nM] | IC50 [3] [nM] | Structure (SMILES) |
| --- | --- | --- | --- |
| < 100 | 100 to 1000 | < 100 | CC(C)c1c(-c2ccnc3[nH]ncc23)[nH]c2ccc(C3CCN(C4CCNCC4C)CC3)cc12 (stereo not drawn) [Example 834, 4-(3-isopropyl-5-(3′-methyl-[1,4′-bipiperidin]-4-yl)-1H-indol-2-yl)-1H-pyrazolo[3,4-b]pyridine] |
| < 100 | 1000 to 50000 | < 100 | Cc1cc(-c2[nH]c3ccc(C4CCNCC4)cc3c2C(C)C)cc2ccnn12 [Example 143, 5-(3-isopropyl-5-(piperidin-4-yl)-1H-indol-2-yl)-7-methylpyrazolo[1,5-a]pyridine] |
| 100 to 1000 | 100 to 1000 | < 100 | CC(C)c1c(-c2cc(C(C)(C)O)c3nccn3c2)[nH]c2ccc(C3CCN(CC(=O)N(C)C)CC3)cc12 [Example 343, 2-(4-(2-(8-(2-hydroxypropan-2-yl)imidazo[1,2-a]pyridin-6-yl)-3-isopropyl-1H-indol-5-yl)piperidin-1-yl)-N,N-dimethylacetamide] |
| > 3130 | > 50000 | 100 to 1000 | C[C@@H](O)CC(=O)N1CCC(c2ccc3[nH]c(-c4cc(F)c5nccn5c4)c(CC(F)F)c3c2)CC1 [Example 603, (R)-1-(4-(3-(2,2-difluoroethyl)-2-(8-fluoroimidazo[1,2-a]pyridin-6-yl)-1H-indol-5-yl)piperidin-1-yl)-3-hydroxybutan-1-one] |
| 100 to 1000 | 1000 to 50000 | 100 to 1000 | CCc1c(-c2ccnc3[nH]cc(CC)c23)[nH]c2ccc(C3CCNCC3)cc12 [Example 220, 3-ethyl-4-(3-ethyl-5-(piperidin-4-yl)-1H-indol-2-yl)-1H-pyrrolo[2,3-b]pyridine] |
| < 100 | 1000 to 50000 | < 100 | CCOc1cc(-c2[nH]c3ccc(C4CCN(CC(=O)N(C)C)CC4)cc3c2C(C)C)cc2nc(C)nn12 [Example 404, 2-(4-(2-(5-ethoxy-2-methyl-[1,2,4]triazolo[1,5-a]pyridin-7-yl)-3-isopropyl-1H-indol-5-yl)piperidin-1-yl)-N,N-dimethylacetamide] |

More lines, now with the values behind:

| Structure (SMILES) | IC50 [1] [nM] | IC50 [2] [nM] | IC50 [3] [nM] |
| --- | --- | --- | --- |
| CNC(=O)CN1CCC(c2ccc3[nH]c(-c4cc(OC)n5ncnc5c4)c(C(C)C)c3c2)CC1 [Example 332, 2-(4-(3-isopropyl-2-(5-methoxy-[1,2,4]triazolo[1,5-a]pyridin-7-yl)-1H-indol-5-yl)piperidin-1-yl)-N-methylacetamide] | < 100 | 100 to 1000 | < 100 |
| Cc1cn2cc(-c3[nH]c4ccc(C5CCN(C(=O)CC(C)(C)O)CC5)cc4c3C(C)C)c(C)cc2n1 [Example 597, 1-(4-(2-(2,7-dimethylimidazo[1,2-a]pyridin-6-yl)-3-isopropyl-1H-indol-5-yl)piperidin-1-yl)-3-hydroxy-3-methylbutan-1-one] | > 3130 | 1000 to 50000 | 100 to 1000 |
| CCc1c(-c2ccnc3[nH]ncc23)[nH]c2ccc(C3CCN(Cc4cnc(N)s4)CC3)cc12 [Example 931, 5-((4-(3-ethyl-2-(1H-pyrazolo[3,4-b]pyridin-4-yl)-1H-indol-5-yl)piperidin-1-yl)methyl)thiazol-2-amine] | > 50000 | > 50000 | > 50000 |
| Cc1cc2ncnn2nc1-c1[nH]c2ccc(C3CCN(C4CCOCC4)CC3)cc2c1C(C)C [Example 687, 6-(3-isopropyl-5-(1-(tetrahydro-2H-pyran-4-yl)piperidin-4-yl)-1H-indol-2-yl)-7-methyl-[1,2,4]triazolo[1,5-b]pyridazine] | < 100 | 1000 to 50000 | < 100 |
| CC(C)c1c(-c2ccnc3[nH]ncc23)[nH]c2ccc(C3CCN(C4CCNCC4)CC3)cc12 [Example 832, 4-(5-([1,4′-bipiperidin]-4-yl)-3-isopropyl-1H-indol-2-yl)-1H-pyrazolo[3,4-b]pyridine] | < 100 | 100 to 1000 | < 100 |
| CCc1c(-c2ccnc3[nH]nc(CC)c23)[nH]c2ccc(C3CCNCC3)cc12 [Example 224, 3-ethyl-4-(3-ethyl-5-(piperidin-4-yl)-1H-indol-2-yl)-1H-pyrazolo[3,4-b]pyridine] | < 100 | 100 to 1000 | 100 to 1000 |
| COc1cc(-c2[nH]c3ccc(C4CCN(CC(C)(C)O)CC4)cc3c2C(C)C)cc2nccn12 [Example 758, 1-(4-(3-isopropyl-2-(5-methoxyimidazo[1,2-a]pyridin-7-yl)-1H-indol-5-yl)piperidin-1-yl)-2-methylpropan-2-ol] | < 100 | 100 to 1000 | 100 to 1000 |
| CC(C)c1c(-c2ccc3nccn3c2)[nH]c2ccc(C3CCN(C(=O)[C@@H]4CCCNC4)CC3)cc12 [Example 639, (R)-(4-(2-(imidazo[1,2-a]pyridin-6-yl)-3-isopropyl-1H-indol-5-yl)piperidin-1-yl)(piperidin-3-yl)methanone] | 100 to 1000 | 100 to 1000 | < 100 |
